In US20080153758A1, “Compounds Which Inhibits Protein Prenylation E.G. Geranylgeransferse or Farnesyltransferase Inhibitors for Treating Parkinson's Disease” (priority 2004, published 2008):

Columns and labels:
FTase = FTase (Homo sapiens, UniProt P49354+P49356); details: read-out: FTase IC50; cited from earlier work
GGTase I = GGTase I (Homo sapiens, UniProt P49354+P53609); details: read-out: GGTase I / PGGTase-I IC50; cited from earlier work
SH-SY5Y cells = assay: MTT cell viability of 6-OHDA treated SH-SY5Y cells; assay type: cell-based, human
Protocol: To test whether inhibition of Ras farnesylation could protect SH-SY5Y cells against 6-OHDA induced oxidative stress, a Ras farnesyltransferase inhibitor, L-744,832, was used in 6-OHDA treated SH-SY5Y cells.
SH-SY5Y cells were plated in 24 well plates (ATGC, France) at the initial density of 3*10^5 cells/well. After 24 hours, cells were pretreated with L-744,832 for 6 hours at concentrations ranging from 20 nM to 40 μM. Then, 6-OHDA (Sigma) diluted in PBS was added to the wells at the concentration of 50 μM. After 17 h incubation, an MTT assay was conducted to reveal cell viability, which was measured as normalized optical densities values (treated cells/untreated control cells), where a value of 1 represents 100% neuronal survival and a value of 0.6 represents 60% survival.

mammary tumors = details: cited from earlier work
[1] = cell-based assays (Law et al. 2000; Birkenkamp et al. 2004); cited from earlier work

In the case of `CC(=O)N(c1ccc(C)cc1)c1ccc(NC(=O)CCCCc2ccccc2)cc1C(=O)c1ccccc1`, the IC50 (FTase) is given as 390 nM.
In the case of `CSCC[C@@H](NC(=O)[C@H]1Cc2ccccc2CN1C(=O)[C@@H](NCCc1c[nH]cn1)C(C)C)C(=O)O` (relative stereo) [BMS-193269, (R*)-N-[[1,2,3,4-Tetrahydro-2-[N-[2-(1H-imidazol-4-yl)ethyl]-L-valyl]-3-isoquinolinyl]carbonyl]-L-methionine], the IC50 (FTase) is listed as 0.79 nM.
For `O=[N+]([O-])[C@H]1C(c2ccccc2Br)CCN(Cc2cccnc2)[C@@H]1c1ccc(O)c(O)c1` (single isomer, unassigned; (+)) [(+)-4-(2-Bromophenyl)-2-(3,4-dihydroxyphenyl)-3-nitro-1-(3-pyridylmethyl)piperidine], the IC50 (FTase) is given as 1.9 nM.
In the case of `CSCCC(NC(=O)C(C=CC(C=CC(N)CS)C(C)C)Cc1ccccc1)C(=O)O` (stereo not drawn) [B956], the IC50 (FTase) is listed as 11 nM.
In the case of `CSCC[C@H](NC(=O)[C@@H](NC(=O)[C@@H](NC(=O)CCP(=O)(O)C/C=C(\C)CC/C=C(\C)CCC=C(C)C)C(C)C)C(C)C)C(=O)O` [BMS-186511], the IC50 (FTase) is listed as 10 nM.
For `CSCC[C@H](NC(=O)CN1C[C@H](N(C)C(=O)[C@H](N)CS)N=C(c2ccccc2)c2ccccc21)C(=O)O` [BZA-2B], the IC50 (FTase) is listed as 0.85 nM.
For `CC(C)C[C@H](NC(=O)CN1C[C@H](N(C)C(=O)[C@H](N)CS)N=C(c2ccccc2)c2ccccc21)C(=O)O` [BZA-4B], the IC50 (FTase) is given as 1.3 nM.
For `CSCC[C@H](NC(=O)c1ccc(NC(=O)[C@@H](N)CS)cc1)C(=O)O` [FTI-232, Cys-4-ABA-Met], the IC50 (FTase) is given as 50 nM.
For `CSCC[C@H](NC(=O)c1ccc(NC[C@@H](N)CS)cc1)C(=O)O` [FTI-249], the IC50 (FTase) is listed as 50 nM.
In the case of `COC(=O)[C@H](CCSC)NC(=O)c1ccc(NC[C@@H](N)CS)cc1-c1ccccc1` [FTI-277], the IC50 (FTase) is listed as 100 nM.
For `CC(C)C[C@H](NC(=O)c1ccc(NC[C@@H](N)CS)cc1-c1ccccc1)C(=O)O` [GGTI-287], the IC50 (GGTase I) is given as 5 nM.
In the case of `C[C@H]([C@H](C/C=C/c1nc2ccccc2o1)c1ccc2c(c1)OCO2)N(Cc1ccc2ccccc2c1)C(=O)[C@H]1OC(C(=O)O)(C(=O)O)O[C@@H]1C(=O)O` [J-104,134], the IC50 (FTase) is listed as 5 nM.
For `C[C@H]([C@H](C/C=C/c1nc2ccccc2o1)c1ccc2c(c1)OCO2)N(Cc1ccc2ccccc2c1)C(=O)[C@H]1OC(C(=O)O)(C(=O)O)O[C@@H]1C(=O)O` [J-104,135], the IC50 (FTase) is listed as 3.9 nM.
For `CCC(C)C(COC(Cc1ccccc1)C(=O)NC(CCS(C)(=O)=O)C(=O)O)NCC(N)CS` [L-739,750], the IC50 (FTase) is given as 1.8 nM.
In the case of `CC[C@H](C)[C@@H](CO[C@@H](Cc1ccccc1)C(=O)N[C@@H](CCS(C)(=O)=O)C(=O)OC(C)C)NC[C@@H](N)CS` [L-744,832, (2S)-2-[[(2S)-2-[[(2S,3S)-2-[[(2R)-2-Amino-3-mercaptopropyl]amino]-3-methylpentyl]oxy]-1-oxo-3-phenylpropyl]amino]-4-(methylsulfonyl)-butanoic acid 1-methylethyl ester], the “toxicity for SH-SY5Y cells” value (SH-SY5Y cells; SH-SY5Y cells) is reported as “non toxic”, the survival ratio (SH-SY5Y cells; SH-SY5Y, 6 h pretreatment with L-744,832 (20 nM to 40 μM), 6-OHDA 50 μM, 17 h, MTT, control 38%) is reported as 53% and the “protective effect against cell death induced by ROS (in words)” value (SH-SY5Y cells; overnight treatment with 6-OHDA, FIG. 1) is reported as “significant protective effect”. The protective effect (SH-SY5Y cells; overnight treatment with 6-OHDA, SH-SY5Y, MTT) was 24%, the “p70s6k phosphorylation in mammary tumors” value (mammary tumors; in vivo) was “inhibits” and the tumor regression (mammary tumors; transgenic mice) was “induces tumor regression”. The reported active concentration [1] was 25 to 60 µM.
In the case of `COC(=O)[C@H](CCSC)N(C(=O)c1ccccc1)C1CCN(C(=O)[C@@H](N)CS)CC1` [Methyl N-benzoyl-N-(piperidin-4-yl-N-(R)-cysteinyl)-(S) methioninate], the IC50 (FTase) is listed as 20 nM.
In the case of `Cn1cncc1C(N)(c1ccc(Cl)cc1)c1ccc2c(c1)c(-c1cccc(Cl)c1)cc(=O)n2C` (stereo not drawn) [R115777, 6-[Amino(4-chlorophenyl)-1-methyl-1H-imidazol-5-ylmethyl]-4-(3-chlorophenyl)-1-methyl-2(1H)-quinolinone], the IC50 (FTase) is given as 0.86 nM.
For `C=C(CCC12OC(C(=O)O)C(O)(C(=O)O)C(C(=O)O)(O1)C(OC(=O)C=CC(C)CC(C)CC)C2O)C(OC(C)=O)C(C)Cc1ccccc1` [Zaragozic acid, L-erythro-L-Glycero-D-altro-7-trideculo-7,4-furanosonic acid, 2,7-anhydro-3,4-di-C-carboxy-8,9,10,12,13-pentadeoxy-10-methylene-12-(phenylmethyl)-,11-acetate 5-(4,6-dimethyl-2-octenoate), [5(2E,4S,6S),7S]], the IC50 (FTase) is given as 50 nM.
